What all share (assay type): biochemical
Common to all, as to conditions: fluorogenic substrate 50 μM; test concentrations 1000 nM to 0.32 nM

The target in test [1] is T1, Caspase-1 (Homo sapiens, UniProt P29466).
T1 construct: purchased BioVision K151-100
T1 sequence (P29466 120-297 limits assumed): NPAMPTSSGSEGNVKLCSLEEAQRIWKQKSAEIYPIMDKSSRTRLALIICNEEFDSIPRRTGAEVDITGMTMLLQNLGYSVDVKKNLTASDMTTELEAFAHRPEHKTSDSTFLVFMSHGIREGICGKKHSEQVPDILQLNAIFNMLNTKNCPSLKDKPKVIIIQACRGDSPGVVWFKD
T1 sequence (P29466 317-404 limits assumed): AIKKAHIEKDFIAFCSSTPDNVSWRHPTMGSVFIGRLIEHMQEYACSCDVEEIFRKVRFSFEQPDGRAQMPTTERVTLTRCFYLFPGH
Briefly: In vitro inhibitory activity on Caspase-1 (BioVision Caspase-1 Inhibitor Screening Kit). Here is the method: (§1) Caspase Inhibitor Screening Kit for BioVision was used in this experiment to test the inhibitory activity of the test compounds on Caspase.
Caspase-1 Inhibitor Screening Kit (BioVision #K151-100)
(§2) Note: Each caspase enzymatic experiment uses the reagents in corresponding kit thereof. Each enzyme was dissolved in 550 μl of the corresponding 2× reaction buffer, sub-packed and stored at −80° C., respectively.
(§3) 1) The compound was diluted to a 200*test concentration with DMSO via the multiple dilution, then to a 2*test concentration with ddH2O, and added to a 384-well experimental plate at 12.5 μl per well. Test compounds and control compounds were tested at 6 concentration points, test concentrations ranging from 1000 nM to 0.32 nM. The ddH2O containing 1% DMSO was added to the 0% inhibition control well, and a high concentration of the control compound was added to the 100% inhibition control well (final concentration: 5 μM).
(§4) 2) 2× reaction buffer containing 10 mM DTT was prepared. The enzyme caspase stock solution was diluted 5-fold with 2× reaction buffer containing 10 mM DTT and added to a 384-well experimental plate at 6.25 μl per well. After being mixed, the enzyme and compounds were incubated at 37° C. for 30 minutes.
(§5) 3) The fluorogenic substrate of the enzyme caspase was diluted 5-fold with 2× reaction buffer containing 10 mM DTT, and then added to a 384-well experimental plate at 6.25 μl per well. The total reaction volume was 25 μl, the final concentration of the substrate was 50 μM, and the final concentration of DMSO was 0.5%. After the substrate was added, the 384-well experimental plate was incubated at 37° C. for 30 minutes.
(§6) 4) The fluorescence intensity (excitation light wavelength was 400 nm, emission light wavelength was 505 nm) was measured by using a multi-function microplate reader. Fluorescence intensity was used to calculate the inhibitory effect of the compounds on Caspase. GraphPad Prism software was used for fitting compound inhibition curves and calculating IC50 values.

Test [2] has as its target T2, Caspase-8 (Homo sapiens, UniProt Q14790).
T2 construct: purchased BioVision K158-100
Briefly: In vitro inhibitory activity on Caspase-8 (BioVision Caspase-8 Inhibitor Screening Kit). The procedure:
as §1
Caspase-8 Inhibitor Screening Kit (BioVision #K158-100)
as §2, §3, §4, §5, §6

The target in test [3] is T3, Caspase-3 (Homo sapiens, UniProt P42574).
T3 construct: purchased BioVision K153-100
T3 sequence (P42574 29-175 limits assumed): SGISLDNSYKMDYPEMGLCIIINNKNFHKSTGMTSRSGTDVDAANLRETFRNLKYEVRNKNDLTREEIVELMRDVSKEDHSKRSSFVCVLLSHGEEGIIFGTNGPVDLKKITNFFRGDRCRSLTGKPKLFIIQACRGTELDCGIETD
T3 sequence (P42574 176-277 limits assumed): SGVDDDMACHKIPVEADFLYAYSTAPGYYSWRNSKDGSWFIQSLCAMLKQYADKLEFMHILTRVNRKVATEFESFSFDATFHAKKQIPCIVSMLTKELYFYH
Briefly: In vitro inhibitory activity on Caspase-3 (BioVision Caspase-3 Inhibitor Screening Kit). Here is the method:
as §1
Caspase-3 Inhibitor Screening Kit (BioVision #K153-100)
as §2, §3, §4, §5, §6

Broadly, the IC50 is the concentration needed to halve the response being measured. A high value points to lower potency.

T2 sequence (Q14790 217-374 limits assumed): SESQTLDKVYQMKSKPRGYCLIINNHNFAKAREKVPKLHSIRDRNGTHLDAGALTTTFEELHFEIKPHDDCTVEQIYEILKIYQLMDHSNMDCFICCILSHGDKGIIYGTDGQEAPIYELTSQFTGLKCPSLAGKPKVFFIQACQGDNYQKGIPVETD
T2 sequence (Q14790 385-479 limits assumed): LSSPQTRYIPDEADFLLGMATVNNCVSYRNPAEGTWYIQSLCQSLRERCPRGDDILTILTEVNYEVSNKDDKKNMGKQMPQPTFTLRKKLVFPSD

As to `C[C@H](NC(=O)c1cc(-c2ccc(Cl)cc2)on1)C(=O)N[C@@H](CC(=O)O)C(=O)COc1c(F)c(F)cc(F)c1F` [Example 6], the IC50 is 6 nM in test [1], 19.9 nM in test [2] and 24.5 nM in test [3].

Turning to `C[C@H](NC(=O)c1cc(-c2ccccc2F)on1)C(=O)N[C@@H](CC(=O)O)C(=O)COc1c(F)c(F)cc(F)c1F` [Example 12], the IC50 is 6.7 nM in test [1], 17.9 nM in test [2] and 21 nM in test [3].

On to `C[C@H](NC(=O)c1cc(-c2ccccc2Cl)no1)C(=O)N[C@@H](CC(=O)O)C(=O)COc1c(F)c(F)cc(F)c1F` [Example 17], for which the IC50 in test [1] is 4.2 nM; in test [2], 31.4 nM; in test [3], 9.5 nM.

`C[C@H](NC(=O)c1cc(-c2ccccc2)no1)C(=O)N[C@@H](CC(=O)O)C(=O)COc1c(F)c(F)cc(F)c1F` [Example 8]: the values for the IC50 in test [1], in test [2] and in test [3] were 5.5 nM, 18 nM and 21.8 nM, respectively.

Regarding `C[C@H](NC(=O)c1cc(-c2ccccc2C(F)(F)F)on1)C(=O)N[C@@H](CC(=O)O)C(=O)COc1c(F)c(F)cc(F)c1F` [Example 11], the IC50 in test [1] came to 9.2 nM; in test [2], 22.6 nM; in test [3], 30 nM.

As for `C[C@H](NC(=O)c1cc(-c2ccccc2Cl)on1)C(=O)N[C@H](CC(=O)O)C(=O)COc1c(F)c(F)cc(F)c1F` [Example 18], the IC50 in test [1] was determined as 7.5 nM; in test [2] it was 62.1 nM; in test [3], 26.1 nM.

Values taken from patent publication US11434212B2, “Bicyclic compound as a caspase inhibitor” (CHIA TAI TIANQING PHARMACEUTICAL GROUP CO., LTD., priority 2017, dated 2022).
